Some test systems named below: A498; BT-549; CAKI-1; EKVX; HL-60; HOP-62; HT-29; IGROV-1; MCF7; MDA-MB-231; MDA-MB-435; NCI-H23; NCI-H460; OVCAR-8; RPMI-8226; SF-268; SK-MEL-28; SK-MEL-5; SN12C; TK-10.
What all share (experiment): NCI tumour cell line growth inhibition, 48 h

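Grown in 96-well plates, cells were treated for 48 hours with each compound at five concentrations. Insufficient inhibition: endpoint recorded as highest concentration tested. The concentration for 50% growth inhibition is given as GI50.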 Activity calls are given as the source filed them. No stated cut-off is given here; in the data, active = GI50 up to about 1.1 µM and inactive = higher.

Turning to `COc1cc2c(cc1O)C1Cc3ccc(OC)c(O)c3C[N+]1(C)CC2` (centres undefined), the GI50 in the test on A498, with BT-549, with CAKI-1, in the test on EKVX, with HL-60 and with HOP-62 was > 100 µM (inactive) throughout. The GI50 with HT-29, with IGROV-1, with MCF7, in the test on MDA-MB-231, in the test with MDA-MB-435 and in the test on NCI-H23 was > 100 µM (inactive) throughout. The GI50 in the test on NCI-H460, in the test with OVCAR-8, in the test with RPMI-8226, with SF-268, in the test on SK-MEL-28 and with SK-MEL-5 was > 100 µM (inactive) throughout. Also, the GI50 with SN12C and in the test with TK-10 was > 100 µM (inactive) each time.

As to `COc1ccc(C2SC(=N)Nc3c2c(C)nn3C(=O)Cc2ccccc2)cc1` (centres undefined), the GI50 in the test with A498, in the test with BT-549, in the test on CAKI-1, in the test with EKVX, with HL-60 and with HOP-62 was > 100 µM (inactive) each time. The GI50 with HT-29, in the test with IGROV-1, in the test with MCF7, in the test on MDA-MB-231, in the test on MDA-MB-435 and with NCI-H23 was > 100 µM (inactive) throughout. The GI50 in the test with NCI-H460, in the test with OVCAR-8, with RPMI-8226, with SF-268, in the test with SK-MEL-28 and with SK-MEL-5 was > 100 µM (inactive) throughout. Also, the GI50 in the test with SN12C and in the test on TK-10 was > 100 µM (inactive) throughout.

`CCOC(C/N=c1/nc(N(C)C)ss1)OCC`: the GI50 in the test on A498 was > 82.8 µM (inactive); with BT-549, 23.4 µM (inactive); in the test on CAKI-1 it was 22.6 µM (inactive); with EKVX, 34.1 µM (inactive); with HL-60, 1.31 µM (inactive); in the test on HOP-62, 65.6 µM (inactive). The GI50 in the test on HT-29 was 0.135 µM (active); in the test on IGROV-1, > 27.5 µM (inactive); in the test on MCF7 it was 2.5 µM (inactive); in the test on MDA-MB-231 it was 15.5 µM (inactive); in the test with MDA-MB-435, 1.91 µM (inactive); with NCI-H23, 33.5 µM (inactive). Also, the GI50 in the test on NCI-H460 is 4.31 µM (inactive); in the test on OVCAR-8 it was 28.1 µM (inactive); in the test with RPMI-8226, 1.16 µM (inactive); with SF-268, 30.1 µM (inactive); in the test on SK-MEL-28, 21.5 µM (inactive); in the test with SK-MEL-5, 0.832 µM (active). Further, the GI50 was 19.2 µM (inactive) in the test on SN12C and 33.3 µM (inactive) with TK-10.

As to `COc1ccc2c(c1OC)C(Br)CCC(Br)(Br)C2=O` (centres undefined), the GI50 was 16 µM (inactive) in the test on A498; 7.87 µM (inactive) in the test with BT-549; 1.78 µM (inactive) in the test on CAKI-1; 14.1 µM (inactive) in the test on EKVX; 5.27 µM (inactive) in the test with HL-60; 18.9 µM (inactive) with HOP-62. The GI50 in the test on HT-29 is 4.43 µM (inactive); in the test on IGROV-1, 5.83 µM (inactive); with MCF7 it was 9.02 µM (inactive); with MDA-MB-231, 16.3 µM (inactive); in the test with MDA-MB-435, 6.41 µM (inactive); with NCI-H23, 7.21 µM (inactive). Also, the GI50 in the test on NCI-H460 was 16 µM (inactive); in the test with OVCAR-8, 7.45 µM (inactive); with RPMI-8226, 4.81 µM (inactive); with SF-268, 14 µM (inactive); in the test on SK-MEL-28 it was 13.1 µM (inactive); in the test with SK-MEL-5, 2.47 µM (inactive). Moreover, the GI50 in the test with SN12C is 4.83 µM (inactive); in the test with TK-10 it was 6.79 µM (inactive).

In the case of `O=C1C=Cc2c(Br)sc(Br)c21`, the GI50 in the test on A498 was > 100 µM (inactive); in the test with BT-549, 27.3 µM (inactive); with CAKI-1, 19.6 µM (inactive); with EKVX, 26.1 µM (inactive); with HL-60 it was 23.1 µM (inactive); in the test with HOP-62, 29.8 µM (inactive). The GI50 is 28.2 µM (inactive) with HT-29; 18.6 µM (inactive) in the test on IGROV-1; 19.3 µM (inactive) in the test on MCF7; 21.7 µM (inactive) in the test with MDA-MB-231; 19.1 µM (inactive) with MDA-MB-435; 26.7 µM (inactive) in the test with NCI-H23. Also, the GI50 in the test with NCI-H460 is 32.3 µM (inactive); in the test with OVCAR-8, 26.5 µM (inactive); with RPMI-8226, 10.3 µM (inactive); in the test with SF-268 it was 30.5 µM (inactive); in the test with SK-MEL-28, 28.8 µM (inactive); in the test with SK-MEL-5, 91.2 µM (inactive). Moreover, the GI50 was 39.8 µM (inactive) in the test on SN12C and 4.78 µM (inactive) in the test on TK-10.

As to `Oc1ccc(Cl)cc1Sc1cc(Cl)ccc1O` [FENTICLOR], the GI50 is 11.2 µM (inactive) with A498; 12.9 µM (inactive) with BT-549; 17.9 µM (inactive) in the test with CAKI-1; 15.5 µM (inactive) in the test on EKVX; 7.87 µM (inactive) in the test on HL-60; 16.7 µM (inactive) with HOP-62. The GI50 in the test with HT-29 was 18 µM (inactive); in the test with IGROV-1 it was 15.1 µM (inactive); with MCF7, 17.3 µM (inactive); with MDA-MB-231 it was 15 µM (inactive); with MDA-MB-435, 10.9 µM (inactive); in the test on NCI-H23 it was 5.04 µM (inactive). The GI50 in the test on NCI-H460 is 10.7 µM (inactive); with OVCAR-8 it was 15 µM (inactive); in the test on RPMI-8226, 3.32 µM (inactive); in the test with SF-268, 10.3 µM (inactive); with SK-MEL-28, 11.8 µM (inactive); in the test on SK-MEL-5, 3.83 µM (inactive). The GI50 in the test on SN12C is 10.5 µM (inactive); in the test with TK-10 it was 17.1 µM (inactive).

On to `Cc1nc(O)nc(N/N=C/c2c3ccccc3c(Cl)c3ccccc23)c1C(=O)Nc1ccc(Cl)cc1`, for which the GI50 in the test with A498 was 47.5 µM (inactive); with BT-549 it was > 100 µM (inactive); in the test with CAKI-1 it was 99.5 µM (inactive); with HL-60, 19 µM (inactive); with HOP-62, 34.7 µM (inactive); with HT-29 it was 55.7 µM (inactive). In addition, the GI50 is 71.1 µM (inactive) in the test on IGROV-1; > 100 µM (inactive) with MCF7; > 100 µM (inactive) with MDA-MB-231; > 100 µM (inactive) in the test with MDA-MB-435; > 100 µM (inactive) in the test with NCI-H23; 45.4 µM (inactive) in the test on NCI-H460. For the same molecule, the GI50 in the test with OVCAR-8 is 68.9 µM (inactive); in the test on RPMI-8226 it was > 100 µM (inactive); in the test with SF-268 it was > 100 µM (inactive); in the test on SK-MEL-28, > 100 µM (inactive); with SK-MEL-5, 41.8 µM (inactive); in the test with SN12C, > 100 µM (inactive). Moreover, the GI50 in the test on TK-10 is 47.6 µM (inactive).

(Values after ChEMBL document CHEMBL1201862, “PubChem BioAssay data set” (2004).)
